HELM strings list units from the 5' end as sugar, base in round brackets, then linkage (d deoxyribose, r ribose, m 2'-O-methyl, p phosphodiester). Strings are as the collection lists them; they lack the last nucleoside at the 3' end of the tested compound. [moe] = 2'-O-(2-methoxyethyl) (MOE); [sp] = phosphorothioate linkage; [m5C] = 5-methylcytosine
molecular target: UBE3A-ATS; assay: mouse, dose not given; conditions: ASO

**Q.** For “RNA1{[moe](T)[sp].[moe](T)p.[moe](A)p.[moe](G)p.[moe](G)p.d(T)[sp].d(T)[sp].d(A)[sp].d(G)[sp].d(T)[sp].d(G)[sp].d([m5C])[sp].d(A)[sp].d([m5C])[sp].d(A)[sp].[moe](G)p.[moe](A)p.[moe](T)[sp].[moe](A)}$$$$ (last 3' nucleoside missing)”, which 3 h FOB score is on record?
**A.** 6 score 0-7

**Q.** With “RNA1{[moe](T)[sp].[moe](T)p.[moe](A)p.[moe](G)p.[moe](G)p.d(T)[sp].d([m5C])[sp].d(A)[sp].d(A)[sp].d([m5C])[sp].d([m5C])[sp].d(A)[sp].d(A)[sp].d(T)[sp].d(T)[sp].[moe](T)p.[moe](G)p.[moe]([m5C])[sp].[moe](T)}$$$$ (last 3' nucleoside missing)” as the substance, how does the 3 h FOB score read?
**A.** 0 score 0-7

**Q.** “RNA1{[moe](T)[sp].[moe](T)p.[moe](A)p.[moe](G)p.[moe](G)p.d([m5C])[sp].d(A)[sp].d(A)[sp].d(T)[sp].d(G)[sp].d(G)[sp].d(A)[sp].d([m5C])[sp].d(T)[sp].d(T)[sp].[moe](A)p.[moe](G)p.[moe](T)[sp].[moe](A)}$$$$ (last 3' nucleoside missing)” was tested. Which 3 h FOB score did it give?
**A.** 1 score 0-7

**Q.** Which 3 h FOB score does the source give for “RNA1{[moe](T)[sp].[moe](T)p.[moe](A)p.[moe](G)p.[moe](T)p.d(A)[sp].d(T)[sp].d(G)[sp].d(T)[sp].d([m5C])[sp].d(G)[sp].d(A)[sp].d(G)[sp].d(A)[sp].d(A)[sp].[moe]([m5C])p.[moe](T)p.[moe]([m5C])[sp].[moe](A)}$$$$ (last 3' nucleoside missing)” here?
**A.** 5.5 score 0-7

**Q.** How did the 3 h FOB score turn out when “RNA1{[moe](T)[sp].[moe](T)p.[moe](A)p.[moe](G)p.[moe](T)p.d(G)[sp].d(T)[sp].d([m5C])[sp].d(A)[sp].d(T)[sp].d(A)[sp].d(T)[sp].d(G)[sp].d(T)[sp].d(A)[sp].[moe](G)p.[moe]([m5C])p.[moe](A)[sp].[moe](A)}$$$$ (last 3' nucleoside missing)” was run?
**A.** 1 score 0-7

**Q.** “RNA1{[moe](T)[sp].[moe](T)p.[moe](A)p.[moe](G)p.[moe]([m5C])p.d([m5C])[sp].d(A)[sp].d(T)[sp].d([m5C])[sp].d(A)[sp].d(T)[sp].d(T)[sp].d(T)[sp].d(T)[sp].d(A)[sp].[moe](T)p.[moe](T)p.[moe]([m5C])[sp].[moe](T)}$$$$ (last 3' nucleoside missing)” was tested. Which 3 h FOB score did it give?
**A.** 0 score 0-7

**Q.** How did the 3 h FOB score turn out when “RNA1{[moe](T)[sp].[moe](T)p.[moe](A)p.[moe](G)p.d(G)[sp].d(T)[sp].d([m5C])[sp].d(A)[sp].d(A)[sp].d([m5C])[sp].d([m5C])[sp].d(A)[sp].d(A)[sp].d(T)[sp].[moe](T)p.[moe](T)p.[moe](G)p.[moe]([m5C])[sp].[moe](T)}$$$$ (last 3' nucleoside missing)” was run?
**A.** 0 score 0-7

**Q.** Which 3 h FOB score does the source give for “RNA1{[moe](T)[sp].[moe](T)p.[moe](A)p.[moe](T)p.[moe](A)p.d(G)[sp].d(G)[sp].d(G)[sp].d(T)[sp].d(G)[sp].d(G)[sp].d(T)[sp].d(T)[sp].d(G)[sp].d(G)[sp].[moe](T)p.[moe](T)p.[moe]([m5C])[sp].[moe](A)}$$$$ (last 3' nucleoside missing)” here?
**A.** 7 score 0-7

**Q.** Which 3 h FOB score does the source give for “RNA1{[moe](T)[sp].[moe](T)p.[moe](A)p.[moe](T)p.[moe](T)p.d(G)[sp].d(G)[sp].d(T)[sp].d([m5C])[sp].d(A)[sp].d(T)[sp].d([m5C])[sp].d(T)[sp].d([m5C])[sp].d(G)[sp].[moe](G)p.[moe](G)p.[moe](T)[sp].[moe](A)}$$$$ (last 3' nucleoside missing)” here?
**A.** 4 score 0-7

**Q.** With “RNA1{[moe](T)[sp].[moe](T)p.[moe](A)p.[moe]([m5C])p.[moe](T)p.d([m5C])[sp].d([m5C])[sp].d(T)[sp].d([m5C])[sp].d(T)[sp].d(G)[sp].d(G)[sp].d(T)[sp].d(G)[sp].d(T)[sp].[moe](G)p.[moe]([m5C])p.[moe](T)[sp].[moe](G)}$$$$ (last 3' nucleoside missing)” as the substance, how does the 3 h FOB score read?
**A.** 3.5 score 0-7
